Drawing on ChEMBL document CHEMBL4831500, “Discovery of first-in-class imidazothiazole-based potent and selective ErbB4 (HER4) kinase inhibitors” (Eur J Med Chem, 2021), this text covers IC50, inhibition and Ratio IC50 for 1 compound.

One data set relates to SK-MEL-5. The data set is described as follows: Antiproliferative activity against human SK-MEL-5 cells assessed as cell growth inhibition measured after 48 hrs by SRB assay. To be noted: SK-MEL-5, 48 h. The class given is functional, cell-based. (Sulforhodamine B stains cellular protein and so reports cell mass.)
Another data set addresses Cytochrome P450 3A4 (Homo sapiens, UniProt P08684). The data set is described as follows: Inhibition of CYP3A4 (unknown origin) using BOMCC as a substrate incubated for 20 mins by fluorescence based analysis. Format: ADME.
The test system of data set [1] is DU-145. The data set is described as follows: Antiproliferative activity against human DU-145 cells assessed as cell growth inhibition measured after 48 hrs by SRB assay. The class given is functional, cell-based. To be noted: DU-145, 48 h.
The subject of data set [2] is UO-31. The data set is described as follows: Antiproliferative activity against human UO-31 cells assessed as cell growth inhibition measured after 48 hrs by SRB assay. The class given is functional, cell-based. To be noted: UO-31, 48 h.
For another data set, the system named is U-251. The data set is described as follows: Antiproliferative activity against human U-251 cells assessed as cell growth inhibition measured after 48 hrs by SRB assay. Format: functional, cell-based. To be noted: U-251, 48 h.
Data set [3] concerns the target Voltage-gated inwardly rectifying potassium channel KCNH2 (Homo sapiens, UniProt Q12809). The data set is described as follows: Inhibition of human ERG incubated for 3 hrs by competitive fluorescence tracer binding based assay.
Data set [4] deals with Tyrosine-protein kinase JAK3 (Homo sapiens, UniProt P52333). The data set is described as follows: Inhibition of JAK3 (unknown origin) incubated for 40 mins in presence of Mg/ATP mix by [gamma p33]-ATP based scintillation counting method.
Tyrosine-protein kinase JAK3, sequence (P52333 whole entry): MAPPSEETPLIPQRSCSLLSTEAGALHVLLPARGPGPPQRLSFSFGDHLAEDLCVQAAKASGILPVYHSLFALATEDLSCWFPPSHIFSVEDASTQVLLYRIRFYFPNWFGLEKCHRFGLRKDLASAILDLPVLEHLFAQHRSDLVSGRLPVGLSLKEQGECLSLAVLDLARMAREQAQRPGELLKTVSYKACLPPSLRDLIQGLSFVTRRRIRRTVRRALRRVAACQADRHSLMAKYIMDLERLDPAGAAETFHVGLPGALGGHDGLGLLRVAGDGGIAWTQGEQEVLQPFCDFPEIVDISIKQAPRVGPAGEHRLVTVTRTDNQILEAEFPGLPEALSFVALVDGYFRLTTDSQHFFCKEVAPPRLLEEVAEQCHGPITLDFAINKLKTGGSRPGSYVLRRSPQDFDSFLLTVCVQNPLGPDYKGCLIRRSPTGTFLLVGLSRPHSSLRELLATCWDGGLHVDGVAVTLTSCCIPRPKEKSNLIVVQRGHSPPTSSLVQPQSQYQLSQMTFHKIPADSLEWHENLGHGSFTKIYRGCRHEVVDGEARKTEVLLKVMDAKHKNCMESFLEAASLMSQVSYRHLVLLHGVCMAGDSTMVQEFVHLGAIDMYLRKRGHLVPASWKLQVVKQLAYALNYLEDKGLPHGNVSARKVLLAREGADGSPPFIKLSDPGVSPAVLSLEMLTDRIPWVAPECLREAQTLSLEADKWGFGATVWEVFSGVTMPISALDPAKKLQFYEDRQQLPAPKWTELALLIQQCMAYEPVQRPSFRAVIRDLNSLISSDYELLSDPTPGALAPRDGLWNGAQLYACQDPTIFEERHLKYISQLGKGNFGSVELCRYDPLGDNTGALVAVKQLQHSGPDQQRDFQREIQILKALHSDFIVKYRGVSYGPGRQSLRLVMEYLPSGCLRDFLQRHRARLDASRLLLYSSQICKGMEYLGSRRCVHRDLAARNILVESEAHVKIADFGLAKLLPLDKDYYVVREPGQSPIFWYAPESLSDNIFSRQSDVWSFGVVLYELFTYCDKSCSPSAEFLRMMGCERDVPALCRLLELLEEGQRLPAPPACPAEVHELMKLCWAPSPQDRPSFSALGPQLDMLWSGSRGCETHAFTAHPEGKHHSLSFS
The subject of the next data set is WI-38. Briefly: Cytotoxicity against human WI-38 cells assessed as cell growth inhibition measured after 48 hrs by SRB assay. Format: cell-based. The settings on record: WI-38, 48 h.
Data set [5] in a line: Cytotoxicity against human WI-38 cells assessed as cell growth inhibition at 10 uM measured after 48 hrs by SRB assay relative to control. Format: cell-based.
For data set [6], the system named is DU-145. Briefly: Antiproliferative activity against human DU-145 cells assessed as cell growth inhibition at 10 uM measured after 48 hrs by SRB assay relative to control. Format: functional.
Data set [7] deals with UO-31. Briefly: Antiproliferative activity against human UO-31 cells assessed as cell growth inhibition at 10 uM measured after 48 hrs by SRB assay relative to control. Format: functional.
In data set [8] the target is Receptor tyrosine-protein kinase erbB-4 (Homo sapiens, UniProt Q15303). Briefly: Inhibition of ErbB4 (unknown origin) incubated for 40 mins in presence of Mg/ATP mix by [gamma p33]-ATP based scintillation counting method.
Another data set addresses Cytochrome P450 2D6 (Homo sapiens, UniProt P10635). Briefly: Inhibition of CYP2D6 (unknown origin) using EOMCC as a substrate incubated for 20 mins by fluorescence based analysis. Format: ADME.
The species named for data set [9] is Homo sapiens. Briefly: Selectivity ratio of IC50 for inhibition of JNK3 (unknown origin) to IC50 for inhibition of ErbB4 (unknown origin). The settings on record: dose 10.0 µM, time 40.0 min.
The next data set deals with NCI-H522. The data set is described as follows: Antiproliferative activity against human NCI-H522 cells assessed as cell growth inhibition measured after 48 hrs by SRB assay. Format: functional, cell-based. The settings on record: NCI-H522, 48 h.
Data set [10] concerns the target Serine/threonine-protein kinase B-raf (Homo sapiens, UniProt P15056). The data set is described as follows: Inhibition of wild type B-RAF (unknown origin) at 10 uM incubated for 40 mins in presence of Mg/ATP mix by [gamma p33]-ATP based scintillation counting method relative to control.
The species entered for data set [11] is Homo sapiens. Briefly: Selectivity ratio of IC50 for inhibition of JAK3 (unknown origin) to IC50 for inhibition of ErbB4 (unknown origin). To be noted: dose 10.0 µM, time 40.0 min.

Serine/threonine-protein kinase B-raf, sequence (P15056 whole entry): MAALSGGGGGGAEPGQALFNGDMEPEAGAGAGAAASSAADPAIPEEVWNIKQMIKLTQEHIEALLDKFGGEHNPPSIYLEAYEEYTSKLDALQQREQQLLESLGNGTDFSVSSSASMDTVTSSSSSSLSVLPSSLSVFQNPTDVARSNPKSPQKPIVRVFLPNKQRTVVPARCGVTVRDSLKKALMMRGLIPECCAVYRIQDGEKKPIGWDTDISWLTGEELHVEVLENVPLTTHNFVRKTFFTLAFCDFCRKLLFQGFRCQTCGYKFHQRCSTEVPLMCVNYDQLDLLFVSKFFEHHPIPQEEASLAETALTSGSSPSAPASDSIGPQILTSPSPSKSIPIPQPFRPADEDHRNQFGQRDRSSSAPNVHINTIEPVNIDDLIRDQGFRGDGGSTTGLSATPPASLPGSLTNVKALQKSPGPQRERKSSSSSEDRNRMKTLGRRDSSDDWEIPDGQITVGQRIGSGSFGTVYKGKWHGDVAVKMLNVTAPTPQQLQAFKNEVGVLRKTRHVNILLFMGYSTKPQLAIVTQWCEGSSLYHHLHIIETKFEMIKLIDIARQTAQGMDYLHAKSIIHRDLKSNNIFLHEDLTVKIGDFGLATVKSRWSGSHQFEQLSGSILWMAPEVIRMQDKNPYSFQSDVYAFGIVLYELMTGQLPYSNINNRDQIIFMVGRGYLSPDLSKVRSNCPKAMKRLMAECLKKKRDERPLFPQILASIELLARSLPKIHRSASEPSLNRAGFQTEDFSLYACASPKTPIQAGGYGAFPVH
Cytochrome P450 2D6, sequence (P10635 whole entry): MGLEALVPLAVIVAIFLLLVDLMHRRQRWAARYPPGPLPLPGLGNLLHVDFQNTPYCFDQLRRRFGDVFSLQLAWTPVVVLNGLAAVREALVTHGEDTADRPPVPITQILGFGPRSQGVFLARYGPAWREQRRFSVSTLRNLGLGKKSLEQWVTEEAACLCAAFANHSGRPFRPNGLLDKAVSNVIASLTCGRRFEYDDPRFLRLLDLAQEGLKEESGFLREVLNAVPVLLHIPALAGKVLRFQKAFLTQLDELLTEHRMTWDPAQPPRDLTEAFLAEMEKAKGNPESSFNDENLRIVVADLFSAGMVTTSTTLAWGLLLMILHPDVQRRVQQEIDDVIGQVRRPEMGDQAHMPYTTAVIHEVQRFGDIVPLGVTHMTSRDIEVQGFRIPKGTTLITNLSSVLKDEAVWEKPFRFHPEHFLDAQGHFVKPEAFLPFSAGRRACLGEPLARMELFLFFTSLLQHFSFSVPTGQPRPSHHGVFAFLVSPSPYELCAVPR
Voltage-gated inwardly rectifying potassium channel KCNH2, sequence (Q12809 whole entry): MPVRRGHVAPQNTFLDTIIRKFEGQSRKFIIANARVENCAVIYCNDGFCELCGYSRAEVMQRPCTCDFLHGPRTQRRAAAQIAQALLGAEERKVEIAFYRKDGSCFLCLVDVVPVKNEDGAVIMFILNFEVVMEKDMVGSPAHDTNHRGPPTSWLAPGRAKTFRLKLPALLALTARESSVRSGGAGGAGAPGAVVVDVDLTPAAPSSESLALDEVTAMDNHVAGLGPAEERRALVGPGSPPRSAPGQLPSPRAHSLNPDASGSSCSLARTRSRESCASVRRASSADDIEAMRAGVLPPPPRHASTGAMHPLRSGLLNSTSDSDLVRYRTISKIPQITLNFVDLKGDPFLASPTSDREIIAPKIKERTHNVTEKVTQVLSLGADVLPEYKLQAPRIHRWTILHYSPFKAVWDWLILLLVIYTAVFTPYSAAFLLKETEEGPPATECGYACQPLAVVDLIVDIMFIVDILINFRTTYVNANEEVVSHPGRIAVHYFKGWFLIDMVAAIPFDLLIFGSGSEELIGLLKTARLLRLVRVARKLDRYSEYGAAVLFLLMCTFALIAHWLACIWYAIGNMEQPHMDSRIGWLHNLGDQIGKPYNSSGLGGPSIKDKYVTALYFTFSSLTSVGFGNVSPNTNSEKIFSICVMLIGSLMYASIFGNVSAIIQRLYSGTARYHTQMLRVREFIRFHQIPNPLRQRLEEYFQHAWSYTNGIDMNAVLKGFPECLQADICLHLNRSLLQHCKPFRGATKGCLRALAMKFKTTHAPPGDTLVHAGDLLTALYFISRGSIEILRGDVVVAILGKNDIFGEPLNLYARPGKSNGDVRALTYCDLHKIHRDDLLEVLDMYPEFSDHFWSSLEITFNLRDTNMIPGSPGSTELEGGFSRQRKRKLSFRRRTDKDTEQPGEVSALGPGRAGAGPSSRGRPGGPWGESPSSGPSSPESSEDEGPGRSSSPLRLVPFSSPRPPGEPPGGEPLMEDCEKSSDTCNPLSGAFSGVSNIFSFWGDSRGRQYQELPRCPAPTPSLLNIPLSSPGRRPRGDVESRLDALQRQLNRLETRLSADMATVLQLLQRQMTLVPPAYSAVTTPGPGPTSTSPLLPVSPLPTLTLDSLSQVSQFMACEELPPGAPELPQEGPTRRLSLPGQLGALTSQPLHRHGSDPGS
Cytochrome P450 3A4, sequence (P08684 whole entry): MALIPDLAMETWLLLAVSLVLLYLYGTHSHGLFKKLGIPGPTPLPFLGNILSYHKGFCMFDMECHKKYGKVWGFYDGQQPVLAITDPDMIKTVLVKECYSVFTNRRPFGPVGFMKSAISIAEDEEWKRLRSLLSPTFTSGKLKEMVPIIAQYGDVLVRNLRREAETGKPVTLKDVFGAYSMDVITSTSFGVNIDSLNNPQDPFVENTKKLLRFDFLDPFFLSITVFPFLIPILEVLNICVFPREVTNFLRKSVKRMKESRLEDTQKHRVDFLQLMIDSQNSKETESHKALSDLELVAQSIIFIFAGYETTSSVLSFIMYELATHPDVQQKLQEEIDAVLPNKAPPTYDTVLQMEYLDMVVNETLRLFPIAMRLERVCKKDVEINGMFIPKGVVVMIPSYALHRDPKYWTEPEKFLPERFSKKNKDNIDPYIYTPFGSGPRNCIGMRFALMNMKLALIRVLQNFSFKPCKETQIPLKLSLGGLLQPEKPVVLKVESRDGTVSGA

A word on the IC50: it is the concentration at which inhibition is half-maximal. One may read the inhibition as the relative decrease from the control value, in per cent. As to `CS(=O)(=O)c1nccc(-c2c(-c3cccc(OCc4ccccc4)c3)nc3sccn23)n1`, the IC50 came to 0.51 µM in the data set on SK-MEL-5; 17.8 µM against Cytochrome P450 3A4; 1.67 µM with DU-145 [1]; 1.55 µM with UO-31 [2]; 6.08 µM with U-251; 12.4 µM in data set [3]. Further, the IC50 is 8.35 µM in [4]; 8.54 µM in the data set with WI-38; 0.0152 µM in [8]; over 90 µM against Cytochrome P450 2D6; 4.91 µM in the data set with NCI-H522. The inhibition at 48 h, 10 µM in data set [5] was 56.4%. Also, the inhibition at 10 µM came to 160% with DU-145 [6] and 96.3% in the data set on UO-31 [7]. Moreover, the Ratio IC50 stood at 341 in the data set filed under Homo sapiens [9] and 548 in the data set listed under Homo sapiens [11]. Further, in data set [10], the inhibition amounted to 34.3%.
